Values quoted from earlier work as cited in publication PMC12506672, “A phase I study of HEC73543, an oral FLT3 inhibitor: the effect of food on pharmacokinetics after oral dosing in healthy Chinese volunteers” (Frontiers in Pharmacology, 2025).

What was measured:
[1] = design: method as in James et al., 2020; conditions: high-fat meal, healthy subjects; ref James et al., 2020
[2] = test system: FLT3-ITD–positive leukemia samples; design: method as in Cucchi et al., 2018; conditions: ex vivo, especially high allelic ratio (AR ≥ 0.5); ref Cucchi et al., 2018
[3] = design: method as in Kim, 2017; conditions: standard or high-fat meal compared to fasting; ref Kim, 2017

Row | GLSM ratio (fed/fasted %) for AUC0–t [1] [%] | GLSM ratio (fed/fasted %) for AUC0–∞ [1] [%] | GLSM ratio (fed/fasted %) for AUC72 [1] [%] | GLSM ratio (fed/fasted %) for Cmax [1] [%] | delay of Tmax with food [3] [h] | increase of AUC exposure with food [3] | lowering of Cmax with food [3] | Structure (SMILES) | colony-forming capacity [2]
1 | 94.6 | 93.8 | 91.0 | 74.0 |  |  |  | CCc1nc(C(N)=O)c(Nc2ccc(N3CCC(N4CCN(C)CC4)CC3)c(OC)c2)nc1NC1CCOCC1 [gilteritinib] | markedly suppresses
2 |  |  |  |  | 2.5 to 3 | 1.2- to 1.6 fold | 20%–27% | CO[C@@H]1[C@H](N(C)C(=O)c2ccccc2)C[C@H]2O[C@]1(C)n1c3ccccc3c3c4c(c5c6ccccc6n2c5c31)C(=O)NC4 [midostaurin] | 
